{"source": "patent US20230255934A1", "about": "“NURR1 RECEPTOR MODULATORS AND USES THEREOF” (The Regents of the University of California, priority 2020, published 2023)", "key": {"Nurr1 LBD His516Ala": {"molecular_target": "T1, Nurr1 LBD His516Ala (Homo sapiens, UniProt P43354, H516A)", "T1 construct": "Mutants of LAP2 Nurr1 were prepared by GenScript starting from LAP2 Nurr1 vector; made in house", "T1 sequence (P43354 with tags, fused parts or gaps H516A)": "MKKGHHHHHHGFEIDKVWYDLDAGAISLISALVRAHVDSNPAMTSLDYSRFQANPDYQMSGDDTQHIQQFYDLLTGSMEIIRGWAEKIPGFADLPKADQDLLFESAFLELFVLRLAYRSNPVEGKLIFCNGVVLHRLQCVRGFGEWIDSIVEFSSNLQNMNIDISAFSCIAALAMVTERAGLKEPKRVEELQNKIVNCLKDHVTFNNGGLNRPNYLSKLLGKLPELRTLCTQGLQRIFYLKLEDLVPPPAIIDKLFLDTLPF", "assay": "MST binding to His516Ala mutant Nurr1 LBD", "conditions": "for Amplitude (% change) / KD (% change): Table 1, H516 relative to WT; for Amplitude: Table 1, MST amplitude, H516; for Response Amplitude: Table 2, MST, His516Ala", "experimental": "(§1) The plasmid used for the expression of LAP2-tagged Nurr1 LBDs (LAP2 Nurr1) was prepared by GenScript (Piscataway, N.J.) as the product of gene synthesis and subcloning into pET-21a(+) Vector (GenScript) using the Ndel and Xhol sites within the MCS. Mutants of LAP2 Nurr1 were prepared by GenScript starting from LAP2 Nurr1 vector.\n(§2) Concentration-dependent association of the indoles with the Nurr1 LBD was carried out using microscale thermophoresis. Stock solutions (10 mM in DMSO) of each indole were serially diluted (200 μM indole, 0.5× dilutions down to 0.0061 μM) in MST buffer (25 mM HEPES, pH 7.4, 150 mM NaCl, and 0.1% Pluronic F127) containing 2% DMSO. The dilutions were carried out with 4% DMSO in the MST buffer for a total of 16 concentrations. Equivalent volumes and concentrations of the fluorescently labeled Nurr1 LBD in MST buffer were added to each ligand dilution in the series to reach a final concentration of 75 nM labeled protein. After incubating for 20 minutes, the samples were loaded into Monolith NT.115 Capillaries (Nanotemper).\n(§3) Data were collected using the Monolith NT.115 System (Nanotemper), with settings for all samples at 40% excitation power and 40% MST power. The initial fluorescence was recorded for 3 sec and the thermophoresis fluorescence response was recorded for 20 sec. The data was inspected with Palmist software^5, and data points affected by initial fluorescence quenching or photobleaching were eliminated. The fluorescent response for each sample was normalized to the initial fluorescence using Palmist software to provide the values of thermophoresis (Fn). The resulting data was used to generate a plot of the change in thermophoresis (Fn-Fn0, where Fn=thermophoresis and Fn0=thermophoresis response in unbound range) versus concentration of the ligand. GraphPad Prism v. 8.3.0 software was used to fit the resulting data to a mass action equation for a specific binding with Hill slope, solving for KD: Fn-Fn0═Fmax·[L]^n/(KD^n+[L]^n), where Fmax=maximum amplitude of thermophoresis, [L]=concentration of the ligand at a specific point, KD=dissociation constant, nH=Hill Coefficient."}, "[1]": {"molecular_target": "T2, Nurr1 LBD Arg563Ala + His516Ala (Homo sapiens, UniProt P43354, H516A/R563A)", "T2 construct": "Mutants of LAP2 Nurr1 were prepared by GenScript starting from LAP2 Nurr1 vector; made in house", "T2 sequence (P43354 with tags, fused parts or gaps H516A/R563A)": "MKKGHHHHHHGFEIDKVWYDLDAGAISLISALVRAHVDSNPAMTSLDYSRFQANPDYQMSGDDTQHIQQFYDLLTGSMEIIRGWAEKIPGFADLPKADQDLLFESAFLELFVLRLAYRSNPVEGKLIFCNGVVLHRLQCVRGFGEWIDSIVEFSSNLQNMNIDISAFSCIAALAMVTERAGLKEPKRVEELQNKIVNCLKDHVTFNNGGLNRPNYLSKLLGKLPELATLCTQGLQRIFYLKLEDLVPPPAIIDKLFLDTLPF", "assay": "MST binding to Arg563Ala + His516Ala double mutant Nurr1 LBD", "conditions": "for Amplitude: Table 1, MST amplitude, H516A/R563A; for Response Amplitude: Table 2, MST, Arg563Ala + His516Ala", "experimental": "as §1, §2, §3"}, "[2]": {"system": "Nurr1 target genes Th and Vmat2 in MN9D cells", "assay": "Target gene transcription assay (qPCR) in MN9D cells", "assay_type": "cell-based, mouse", "conditions": "for Expression of Th, fold-change relative to vehicle (DMSO) / Expression of Vmat2, fold-change relative to vehicle (DMSO): 10 μM, 24 h, normalized to Hprt", "experimental": "Target Gene Transcription Assays. These assays were carried out using standard protocols. MN9D TET-ON frozen cell stocks (P5) were thawed and grown for 60-72 h on poly-D-lysine pre-treated culture dishes (100 mm) in Dulbecco's Modified Eagle Medium/Nutrient Mixture F-12 (DMEM/F-12; Gibco) supplemented with 5% Tet System Approved FBS (Takara Bio USA) at 37° C., 5% C02 to ˜80% confluency. The resulting cells were then trypsinized with 0.25% Trypsin-EDTA (Gibko) and diluted to 2·10^5 cells/ml with fresh medium. The resulting cell suspension (0.8 mL) was added to 2× concentrated compound in the same medium containing 0.2% DMSO (0.8 mL) in an Eppendorf tube. The cell suspension with compound or vehicle (DMSO) was then seeded onto a 24-well plate pre-treated with Poly-D-Lysine at 0.8 mL per well. Assays were performed under conditions of basal Nurr1 expression, without induction of additional Nurr1 expression using doxycycline.\nAfter 24 h, total RNA was extracted the cells in each well using the Quick-RNA MiniPrep Plus Kit (Zymo Research), according to the manufacturer's instructions. The cDNA was then synthesized from 1000 ng of purified RNA using High-Capacity cDNA Reverse Transcription Kit (Applied Biosystems) and used as template. The qPCR as performed using iTaq Universal SYBR Green Supermix (BioRad) and CFX96 Real-Time Detection System machine (BioRad). Briefly, qPCR was performed in hard-shell 96-well PCR plates (BioRad) using cDNA corresponding to 8.75 ng of starting total RNA in a volume of 15 μl, containing 7.5 μl of SYBR Green Supermix, and 1 μL of 10 μM forward and reverse primers. Cycling parameters for qPCR included an initial denaturation at 95° C. for 3 min, followed by 40 cycles of 95° C. for 5 s and annealing at 56° C. for 30 s. The forward and reverse primers (Table 4) were ordered from IDT. Gene expression was quantified by the comparative2-ΔΔCt method, with the mouse housekeeping gene hypoxanthine-guanine phosphoribosyltransferase (Hprt) used as internal reference to determine the relative mRNA expression. Transcript levels for target genes were normalized to the housekeeping gene Hprt and fold change was compared to gene expression levels from vehicle (DMSO) only treated cells. GraphPad Prism 8 software was used for statistical analysis. Two-way ANOVA was applied for DMSO fold change vs compound. Results are from three independent experiments. Relative average expression±SD; *p<0.05, **p<0.01, ***p<0.001, ****p<0.0001 by ANOVA in comparison expression with 0 μM compound (DMSO only)."}, "[3]": {"assay": "UV/VIS spectroscopy (A280) under MST assay conditions", "assay_type": "physicochemical", "conditions": "A280 linear over all concentrations, 0.1% Pluronic F127"}, "[4]": {"conditions": "Table 1, Nurr1 variant H516, read-out: KD"}, "[5]": {"conditions": "Table 2, His516Ala, read-out: Affinity (KD)"}, "[6]": {"conditions": "Table 1, H516A/R563A relative to WT"}}, "note": "“Also recorded” adds a separate entry of the source. Like-named read-outs stand apart in the source and are kept apart here."}
{"smiles": "Clc1ccc2[nH]ccc2c1", "note": "[5-chloroindole]", "values": [{"measurement": "Amplitude (% change)", "setting": "Nurr1 LBD His516Ala", "value": "−50", "unit": "%"}, {"measurement": "KD (% change)", "setting": "Nurr1 LBD His516Ala", "value": "−36", "unit": "%"}, {"measurement": "Amplitude", "setting": "Nurr1 LBD His516Ala", "value": "34 + 4"}, {"measurement": "Kd", "setting": "Nurr1 LBD His516Ala; [4]", "value": 16, "unit": "µM"}, {"measurement": "Kd", "setting": "Nurr1 LBD His516Ala; [5]", "value": 8.6, "unit": "µM"}, {"measurement": "Response Amplitude", "setting": "Nurr1 LBD His516Ala", "value": "25 + 2 (****)"}, {"measurement": "Amplitude (% change)", "setting": "[1]; [6]", "value": "−62", "unit": "%"}, {"measurement": "KD (% change)", "setting": "[1]; [6]", "value": "−68", "unit": "%"}, {"measurement": "Amplitude", "setting": "[1]", "value": "26 + 2"}, {"measurement": "Kd", "setting": "[1]; Table 1, Nurr1 variant H516A/R563A, read-out: KD", "value": 8, "unit": "µM"}, {"measurement": "Kd", "setting": "[1]; Table 2, Arg563Ala + His516Ala, read-out: Affinity (KD)", "value": 7.3, "unit": "µM"}, {"measurement": "Response Amplitude", "setting": "[1]", "value": "23 + 1 (****)"}, {"measurement": "Effect on expression of Nurr1 target genes Th and Vmat2 (in words)", "setting": "[2]", "value": "concentration dependent; also recorded: upregulating the expression; also recorded: supports the transcription; also recorded: superior to that of DHI"}, {"measurement": "Expression of Th, fold-change relative to vehicle (DMSO)", "setting": "[2]", "value": 1.8, "unit": "fold"}, {"measurement": "Expression of Vmat2, fold-change relative to vehicle (DMSO)", "setting": "[2]", "value": 2.4, "unit": "fold"}, {"measurement": "Precipitation under MST assay conditions", "setting": "[3]", "value": "do not precipitate under the assay conditions"}]}
{"smiles": "Brc1ccc2[nH]ccc2c1", "note": "[5-bromoindole]", "values": [{"measurement": "Binding affinity for His516Ala mutant versus wildtype (in words)", "setting": "Nurr1 LBD His516Ala; MST", "value": "statistically unchanged"}, {"measurement": "Amplitude (% change)", "setting": "Nurr1 LBD His516Ala", "value": "−43", "unit": "%"}, {"measurement": "KD (% change)", "setting": "Nurr1 LBD His516Ala", "value": "+10%"}, {"measurement": "Amplitude", "setting": "Nurr1 LBD His516Ala", "value": "41 + 5"}, {"measurement": "Kd", "setting": "Nurr1 LBD His516Ala; [4]", "value": 11, "unit": "µM"}, {"measurement": "Kd", "setting": "Nurr1 LBD His516Ala; [5]", "value": 7.3, "unit": "µM"}, {"measurement": "Response Amplitude", "setting": "Nurr1 LBD His516Ala", "value": "33 + 5 (*)"}, {"measurement": "Binding to Arg563Ala + His516Ala mutant Nurr1 LBD (in words)", "setting": "[1]; MST", "value": "completely eliminated"}, {"measurement": "Amplitude (% change)", "setting": "[1]; [6]", "value": "≥−86", "unit": "%"}, {"measurement": "Amplitude", "setting": "[1]", "value": "- (≤10)"}, {"measurement": "Response Amplitude", "setting": "[1]", "value": "≤10 (****)"}, {"measurement": "Effect on expression of Nurr1 target genes Th and Vmat2 (in words)", "setting": "[2]", "value": "upregulating the expression; also recorded: supports the transcription"}, {"measurement": "Expression of Th, fold-change relative to vehicle (DMSO)", "setting": "[2]", "value": 2.2, "unit": "fold"}, {"measurement": "Expression of Vmat2, fold-change relative to vehicle (DMSO)", "setting": "[2]", "value": 2.5, "unit": "fold"}, {"measurement": "Precipitation under MST assay conditions", "setting": "[3]", "value": "do not precipitate under the assay conditions"}]}
